Laboratory results reported in patent US6384077B1, “Highly purified EPA for treatment of schizophrenia and related disorders” (Laxdale Limited, priority 1999, dated 2002).

Columns and labels:
Type in all cases: in vivo, human
[1] = tested on: panic and anxiety disorders; assay: case histories: panic and anxiety disorders
Protocol: We have now treated several patients who have panic and anxiety disorders with purified ethyl-EPA with excellent effect. Three case histories follow. A person was disabled as a result of frequent and uncontrollable panic attacks and palpitations. […] They were then given a dose of 2 g per day of ethyl EPA as four 500 mg capsules. […] A person had suffered from mild anxiety and panic attacks for most of their life but these had become much worse over the previous few years in association with various problems with their children. Anxiolytics and antidepressants had only modest effects and their palpitations were uncontrolled even by relatively high doses of beta-blockers. Again they were treated with ethyl-EPA over a period of four months. […] The third patient was a housewife who had been through two divorces and was now in a long-term relationship. They had several panic attacks every week, sometimes in the middle of the night, and always accompanied by strong palpitations which were very worrying for them. These panic attacks were accompanied by depression. They were very reluctant to go out for fear of having an attack and this seriously disrupted their life. Again, antidepressants, beta-blockers and anxiolytics had had only limited beneficial effects. […] Sometimes, they felt that an attack of palpitations might be coming on but it rarely materialised. As a result, they felt increasing confidence and was able to resume a much more normal life.

bipolar disorder = assay: case reports: five patients with bipolar disorder; conditions: 2 g/day after switch from fish oil
Excerpt: This provided 1.8-3.6 g of EPA and 1.2-2.4 g of DHA per day. […] They were, however, far from completely normal. When the pure ethyl-EPA became available, they were switched from the fish oil to the pure EPA at a dose of 2 g/day in the form of four 0.5 g soft gelatin capsules. […] In particular they all noted an improvement in something which is difficult to measure by conventional psychiatric rating scales. This is a sense of inner tension or dysphoria, a state which is associated with the illness, but which may be exaggerated or changed by antipsychotic drugs to a state of confused tension, sometimes described as a sense of the brain being replaced by cotton wool, and a difficulty of thinking clearly in a straight line. […] They had not noticed this effect which being treated with the higher dose of EPA in the form of the EPA/DHA mix in fish oil.

[2] = tested on: patients who had schizophrenia; assay: randomised, placebo-controlled study of ethyl-EPA in clozapine-treated patients with schizophrenia (PANSS, MADRS); conditions: 1 g or 2 g per day versus placebo, 12 weeks
Excerpt: Although the case reports of the effects of ethyl-EPA are convincing and in some cases dramatic, unequivocal proof of its efficacy must come from randomised, placebo-controlled trials. We therefore set up a randomised, placebo-controlled study of EPA in 34 patients who had schizophrenia according to the criteria set out in the American Psychiatric Association's Diagnostic and Statistical Manual of Mental Disorders (4th edition, DSM-IV). All of these patients were being treated with clozapine drugs but all remained seriously ill, with schizophrenic symptoms. Like many schizophrenics, some of the patients were also depressed. All were assessed at baseline and after 12 weeks using the Positive and Negative Symptom Scale for Schizophrenia (PANSS) and the Montgomery-Asberg Depression Rating Scale (MADRS). After giving informed consent, all the patients were randomised on a double blind basis to one of three groups: placebo, or 1 g or 2 g of ethyl-EPA per day in the form of 0.5 g capsules. Placebo and EPA capsules were indistinguishable from one another in appearance. All the patients improved to some degree so all the changes are percentage improvements

## CC/C=C\C/C=C\C/C=C\C/C=C\C/C=C\CCCC(=O)OCC [ethyl-EPA]
[1]; housewife, four months
  panic attacks and palpitations: dramatic reduction in their panic attacks and palpitations
[1]; person, 2 g per day, three months
  panic attacks and palpitations: almost absent
[1]; person, four months
  anxiety and panic attacks: much less severe
Bipolar disorder
  clinical condition in bipolar disorder: clinical condition improved considerably
  sense of dysphoria, tension and cotton-wool thinking: greatly reduced or disappeared altogether
[2]
  side effects: no reported side effects attributable to the E-EPA
